The values below are quoted from earlier work in patent EP4616878A1, “CANNULA FOR RECTAL ADMINISTRATION OF AN ENEMA AND COMPOSITIONS FOR USE THEREWITH” (Cosmo Technologies Ltd., priority 2024, dated 2025).

The conditions of series [1]: in vivo.
Series [2] concerns the target T1, pregnane X receptor (PXR) (Homo sapiens, UniProt O75469).
T1 sequence (O75469 1-434): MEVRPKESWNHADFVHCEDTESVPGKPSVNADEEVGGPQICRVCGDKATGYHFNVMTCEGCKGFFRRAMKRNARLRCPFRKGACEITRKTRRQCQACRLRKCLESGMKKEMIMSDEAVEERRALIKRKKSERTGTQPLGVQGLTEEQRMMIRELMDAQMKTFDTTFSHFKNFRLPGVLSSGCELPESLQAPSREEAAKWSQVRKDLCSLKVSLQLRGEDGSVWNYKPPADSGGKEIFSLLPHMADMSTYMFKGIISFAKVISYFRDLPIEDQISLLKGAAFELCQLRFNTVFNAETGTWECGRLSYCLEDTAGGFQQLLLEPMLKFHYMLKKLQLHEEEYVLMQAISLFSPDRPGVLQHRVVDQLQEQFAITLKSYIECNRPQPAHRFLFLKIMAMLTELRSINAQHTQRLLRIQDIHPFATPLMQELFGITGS
To be noted: liver and intestinal cell lines; also downstream targets CYP3A4 and PgP.

The next series relates to nuclear factor-KB (NFκB). The conditions noted are these: cell line which lacks PXR expression.

For `CO[C@H]1/C=C/O[C@@]2(C)Oc3c(C)c(O)c4c(O)c(cc(O)c4c3C2=O)NC(=O)/C(C)=C\C=C\[C@H](C)[C@H](O)[C@@H](C)[C@@H](O)[C@@H](C)[C@H](OC(C)=O)[C@@H]1C` [Rifamycin, Rifamycin SV], the “absorption in the bloodstream” value in series [1] is on record as “negligible”. Moreover, in series [2], the “effect on PXR” value is given as “activate”. In addition, the “effect on NFκB” value in the series with nuclear factor-KB (NFκB) was “directly inhibited”.
